In patent US12559492B2, “BRAF degraders” (C4 Therapeutics, Inc., priority 2020, dated 2026):

Target: BRAF^V600E protein (Homo sapiens, UniProt P15056, V600E)
Test: HiBiT cellular BRAF V600E degradation assay
Assay type: cell-based
Conditions: 24 h incubation; for DC50: A375.10 cells (HiBiT tag knocked in at N-terminal of BRAF V600E), concentration at which 50% of total cellular BRAF V600E is degraded; for Emax: A375.10 cells, Emax = amount of residual protein remaining in the cell after compound treatment, read-out: HiBit 24 h Emax

BRAF^V600E protein, sequence (P15056 whole entry V600E): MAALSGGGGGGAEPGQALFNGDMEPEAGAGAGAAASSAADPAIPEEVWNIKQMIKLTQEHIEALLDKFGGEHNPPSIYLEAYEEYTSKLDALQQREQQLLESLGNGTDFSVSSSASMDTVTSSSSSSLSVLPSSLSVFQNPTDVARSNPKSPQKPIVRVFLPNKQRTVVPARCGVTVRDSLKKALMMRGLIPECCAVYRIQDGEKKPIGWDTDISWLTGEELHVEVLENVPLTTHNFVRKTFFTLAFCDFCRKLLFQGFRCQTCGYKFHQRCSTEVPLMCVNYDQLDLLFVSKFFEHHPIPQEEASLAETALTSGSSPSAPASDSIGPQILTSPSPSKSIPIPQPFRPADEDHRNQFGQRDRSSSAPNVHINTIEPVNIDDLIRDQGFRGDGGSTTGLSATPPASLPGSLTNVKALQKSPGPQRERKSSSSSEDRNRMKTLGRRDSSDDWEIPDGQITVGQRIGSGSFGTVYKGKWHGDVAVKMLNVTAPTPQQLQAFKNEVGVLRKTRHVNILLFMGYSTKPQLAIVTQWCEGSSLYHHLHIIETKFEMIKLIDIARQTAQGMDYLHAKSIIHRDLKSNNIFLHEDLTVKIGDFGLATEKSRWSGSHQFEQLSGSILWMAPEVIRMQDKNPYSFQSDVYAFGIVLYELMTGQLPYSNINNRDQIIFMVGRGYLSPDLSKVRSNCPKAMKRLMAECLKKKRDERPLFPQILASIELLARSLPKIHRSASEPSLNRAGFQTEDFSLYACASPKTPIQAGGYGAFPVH

SMILES | DC50 | Emax
CCN(C)S(=O)(=O)Nc1ccc(F)c(C(=O)c2c[nH]c3ncc(-c4ccc(C5CCN(C(=O)CN6CCC(c7ccc(NC8CCC(=O)NC8=O)cc7)CC6)CC5)cc4)cc23)c1F (stereo not drawn) [Example A44, 5-[4-[1-[2-[4-[4-[(2,6-Dioxopiperidin-3-yl)amino]phenyl]piperidin-1-yl]acetyl]piperidin-4-yl]phenyl]-3-[3-[[ethyl(methyl)sulfamoyl]amino]-2,6-difluorobenzoyl]-1H-pyrrolo[2,3-b]pyridine] | 10.4 nM | 9.52%
CCN(C)S(=O)(=O)Nc1ccc(F)c(C(=O)c2c[nH]c3ncc(-c4ccc(N5CCN(C(=O)CN6CCC(c7ccc(OC8CCC(=O)NC8=O)cn7)CC6)CC5)nc4)cc23)c1F (stereo not drawn) [Example A45, 5-[6-[4-[2-[4-[5-(2,6-Dioxopiperidin-3-yl)oxypyridin-2-yl]piperidin-1-yl]acetyl]piperazin-1-yl]pyridin-3-yl]-3-[3-[[ethyl(methyl)sulfamoyl]amino]-2,6-difluorobenzoyl]-1H-pyrrolo[2,3-b]pyridine] | 65 nM | 21%
CCN(C)S(=O)(=O)Nc1ccc(F)c(C(=O)c2c[nH]c3ncc(-c4cnc(C5CCN(C(=O)CN6CCC(c7ccc(NC8CCC(=O)NC8=O)cc7)CC6)CC5)nc4)cc23)c1F (stereo not drawn) [Example A46, 5-[2-[1-[2-[4-[4-[(2,6-Dioxopiperidin-3-yl)amino]phenyl]piperidin-1-yl]acetyl]piperidin-4-yl]pyrimidin-5-yl]-3-[3-[[ethyl(methyl)sulfamoyl]amino]-2,6-difluorobenzoyl]-1H-pyrrolo[2,3-b]pyridine] | 7.44 nM | 10.8%
CCN(C)S(=O)(=O)Nc1ccc(F)c(C(=O)c2c[nH]c3ncc(-c4ccc(N5CCN(C(=O)CN6CCC(c7ccc(NC89CC(C8)C(=O)NC9=O)cc7)CC6)CC5)nc4)cc23)c1F [Example A47, 5-[6-[4-[2-[4-[4-[(2,4-Dioxo-3-azabicyclo[3.1.1]heptan-1-yl)amino]phenyl]piperidin-1-yl]acetyl]piperazin-1-yl]pyridin-3-yl]-3-[3-[[ethyl(methyl)sulfamoyl]amino]-2,6-difluorobenzoyl]-1H-pyrrolo[2,3-b]pyridine] | 3.86 nM | 10.7%
O=C1CCC(Nc2ccc(C3CCN(CC(=O)N4CCN(c5ccc(-c6cnc7[nH]cc(C(=O)c8c(F)ccc(NS(=O)(=O)N9CCCC9)c8F)c7c6)cc5)CC4)CC3)cc2)C(=O)N1 (stereo not drawn) [Example A48, N-[3-[5-[4-[4-[2-[4-[4-[(2,6-Dioxopiperidin-3-yl)amino]phenyl]piperidin-1-yl]acetyl]piperazin-1-yl]phenyl]-1H-pyrrolo[2,3-b]pyridine-3-carbonyl]-2,4-difluorophenyl]pyrrolidine-1-sulfonamide] | 5 nM | 12%
CCN(C)S(=O)(=O)Nc1ccc(F)c(C(=O)c2c[nH]c3ncc(-c4ccc(C5CCN(C(=O)CN6CCC(c7ccc(NC8CCC(=O)NC8=O)cc7)CC6)CC5)nc4)cc23)c1F (stereo not drawn) [Example A49, 5-[6-[1-[2-[4-[4-[(2,6-Dioxopiperidin-3-yl)amino]phenyl]piperidin-1-yl]acetyl]piperidin-4-yl]pyridin-3-yl]-3-[3-[[ethyl(methyl)sulfamoyl]amino]-2,6-difluorobenzoyl]-1H-pyrrolo[2,3-b]pyridine] | 17 nM | 11%
O=C1CCC(Oc2ccc(C3CCN(CC(=O)N4CCN(c5ccc(-c6cnc7[nH]cc(C(=O)c8c(F)ccc(NS(=O)(=O)N9CCCC9)c8F)c7c6)cc5)CC4)CC3)cc2)C(=O)N1 (stereo not drawn) [Example A50, N-[3-[5-[4-[4-[2-[4-[4-(2,6-Dioxopiperidin-3-yl)oxyphenyl]piperidin-1-yl]acetyl]piperazin-1-yl]phenyl]-1H-pyrrolo[2,3-b]pyridine-3-carbonyl]-2,4-difluorophenyl]pyrrolidine-1-sulfonamide] | 15 nM | 12%
O=C1CCC(Nc2ccc(N3CCN(CC(=O)N4CCN(c5ccc(-c6cnc7[nH]cc(C(=O)c8c(F)ccc(NS(=O)(=O)N9CCCC9)c8F)c7c6)cc5)CC4)CC3)cc2)C(=O)N1 (stereo not drawn) [Example A51, N-[3-[5-[4-[4-[2-[4-[4-[(2,6-Dioxopiperidin-3-yl)amino]phenyl]piperazin-1-yl]acetyl]piperazin-1-yl]phenyl]-1H-pyrrolo[2,3-b]pyridine-3-carbonyl]-2,4-difluorophenyl]pyrrolidine-1-sulfonamide] | 4 nM | 14%
O=C1CCC(Nc2ccc(C3CCN(CC(=O)N4CCN(c5ccc(-c6cnc7[nH]cc(C(=O)c8c(F)ccc(NS(=O)(=O)C9CCCC9)c8F)c7c6)cc5)CC4)CC3)cc2)C(=O)N1 (stereo not drawn) [Example A52, N-[3-[5-[4-[4-[2-[4-[4-[(2,6-Dioxopiperidin-3-yl)amino]phenyl]piperidin-1-yl]acetyl]piperazin-1-yl]phenyl]-1H-pyrrolo[2,3-b]pyridine-3-carbonyl]-2,4-difluorophenyl]cyclopentanesulfonamide] | 10 nM | 12%
O=C1CCC(Nc2ccc(C3CCN(C(=O)NC4CCN(Cc5ccc(-c6cnc7[nH]cc(C(=O)c8c(F)ccc(NS(=O)(=O)N9CCCC9)c8F)c7c6)cc5)CC4)CC3)cc2)C(=O)N1 (stereo not drawn) [Example A53, N-[1-[[4-[3-[2,6-Difluoro-3-(pyrrolidin-1-ylsulfonylamino)benzoyl]-1H-pyrrolo[2,3-b]pyridin-5-yl]phenyl]methyl]piperidin-4-yl]-4-[4-[(2,6-dioxopiperidin-3-yl)amino]phenyl]piperidine-1-carboxamide;formic acid] | 27 nM | 22%
CCN(C)S(=O)(=O)Nc1ccc(F)c(C(=O)c2c[nH]c3ncc(-c4cnc(N5CCN(C(=O)CN6CCC(c7ccc(NC8CCC(=O)NC8=O)cc7F)CC6)CC5)nc4)cc23)c1F (stereo not drawn) [Example A54, 5-[2-[4-[2-[4-[4-[(2,6-Dioxopiperidin-3-yl)amino]-2-fluorophenyl]piperidin-1-yl]acetyl]piperazin-1-yl]pyrimidin-5-yl]-3-[3-[[ethyl(methyl)sulfamoyl]amino]-2,6-difluorobenzoyl]-1H-pyrrolo[2,3-b]pyridine] | 3.94 nM | 9.71%

The remaining lines, values ahead:

DC50 | Emax | SMILES
97 nM | 26% | CCN(C)S(=O)(=O)Nc1ccc(F)c(C(=O)c2c[nH]c3ncc(-c4cnc(N5CCN(C(=O)C(C)(C)N6CCC(c7ccc(NC8CCC(=O)NC8=O)cc7)CC6)CC5)nc4)cc23)c1F (stereo not drawn) [Example A55, 5-[2-[4-[2-[4-[4-[(2,6-Dioxopiperidin-3-yl)amino]phenyl]piperidin-1-yl]-2-methylpropanoyl]piperazin-1-yl]pyrimidin-5-yl]-3-[3-[[ethyl(methyl)sulfamoyl]amino]-2,6-difluorobenzoyl]-1H-pyrrolo[2,3-b]pyridine]
20 nM | 11% | CCN(C)S(=O)(=O)Nc1ccc(F)c(C(=O)c2c[nH]c3ncc(-c4ccc(N5CCC(NC(=O)CN6CCC(c7ccc(NC8CCC(=O)NC8=O)cn7)CC6)CC5)cc4)cc23)c1F (stereo not drawn) [Example A56, 2-[4-[5-[(2,6-dioxopiperidin-3-yl)amino]pyridin-2-yl]piperidin-1-yl]-N-[1-[4-[3-[3-[[ethyl(methyl)sulfamoyl]amino]-2,6-difluorobenzoyl]-1H-pyrrolo[2,3-b]pyridin-5-yl]phenyl]piperidin-4-yl]acetamide; formic acid]
33 nM | 13% | CCN(C)S(=O)(=O)Nc1ccc(F)c(C(=O)c2c[nH]c3ncc(-c4ccc(N5CCC(NC(=O)CN6CCC(c7ccc(NC8CCC(=O)NC8=O)cn7)CC6)CC5)nc4)cc23)c1F (stereo not drawn) [Example A57, 2-[4-[5-[(2,6-dioxopiperidin-3-yl)amino]pyridin-2-yl]piperidin-1-yl]-N-[1-[5-[3-[3-[[ethyl(methyl)sulfamoyl]amino]-2,6-difluorobenzoyl]-1H-pyrrolo[2,3-b]pyridin-5-yl]pyridin-2-yl]piperidin-4-yl]acetamide;formic acid]
43 nM | 13% | CCN(C)S(=O)(=O)Nc1ccc(F)c(C(=O)c2c[nH]c3ncc(-c4cnc(N5CCC(NC(=O)CN6CCC(c7ccc(NC8CCC(=O)NC8=O)cn7)CC6)CC5)nc4)cc23)c1F (stereo not drawn) [Example A58, 2-[4-[5-[(2,6-dioxopiperidin-3-yl)amino]pyridin-2-yl]piperidin-1-yl]-N-[1-[5-[3-[3-[[ethyl(methyl)sulfamoyl]amino]-2,6-difluorobenzoyl]-1H-pyrrolo[2,3-b]pyridin-5-yl]pyrimidin-2-yl]piperidin-4-yl]acetamide; formic acid]
60 nM | 13% | CCN(C)S(=O)(=O)Nc1ccc(F)c(C(=O)c2c[nH]c3ncc(-c4cnc(N5CCC(NC(=O)CN6CCC(c7ccc(OC8CCC(=O)NC8=O)cc7)CC6)CC5)nc4)cc23)c1F (stereo not drawn) [Example A59, 2-[4-[4-(2,6-Dioxopiperidin-3-yl)oxyphenyl]piperidin-1-yl]-N-[1-[5-[3-[3-[[ethyl(methyl)sulfamoyl]amino]-2,6-difluorobenzoyl]-1H-pyrrolo[2,3-b]pyridin-5-yl]pyrimidin-2-yl]piperidin-4-yl]acetamide;formic acid]
275 nM | 24% | CCN(C)S(=O)(=O)Nc1ccc(F)c(C(=O)c2c[nH]c3ncc(-c4cnc(N5CCC(NC(=O)CN6CCC(c7ccc(OC8CCC(=O)NC8=O)cn7)CC6)CC5)nc4)cc23)c1F (stereo not drawn) [Example A60, 2-[4-[5-(2,6-Dioxopiperidin-3-yl)oxypyridin-2-yl]piperidin-1-yl]-N-[1-[5-[3-[3-[[ethyl(methyl)sulfamoyl]amino]-2,6-difluorobenzoyl]-1H-pyrrolo[2,3-b]pyridin-5-yl]pyrimidin-2-yl]piperidin-4-yl]acetamide;formic acid]
40 nM | 16% | CCN(C)S(=O)(=O)Nc1ccc(F)c(C(=O)c2c[nH]c3ncc(-c4ccc(N5CCC(NC(=O)CN6CCC(c7ccc(OC8CCC(=O)NC8=O)cc7)CC6)CC5)nc4)cc23)c1F (stereo not drawn) [Example A61, 2-[4-[4-(2,6-Dioxopiperidin-3-yl)oxyphenyl]piperidin-1-yl]-N-[1-[5-[3-[3-[[ethyl(methyl)sulfamoyl]amino]-2,6-difluorobenzoyl]-1H-pyrrolo[2,3-b]pyridin-5-yl]pyridin-2-yl]piperidin-4-yl]acetamide;formic acid]
